The structures appear in SMILES notation. Activity calls are given as the source filed them.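 The calls were made as follows: active = average EC50 below 10 µM; inactive = average EC50 of 10 µM or more.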

Muscarinic acetylcholine receptor M1 (Rattus norvegicus), sequence (P08482 whole entry, looked up): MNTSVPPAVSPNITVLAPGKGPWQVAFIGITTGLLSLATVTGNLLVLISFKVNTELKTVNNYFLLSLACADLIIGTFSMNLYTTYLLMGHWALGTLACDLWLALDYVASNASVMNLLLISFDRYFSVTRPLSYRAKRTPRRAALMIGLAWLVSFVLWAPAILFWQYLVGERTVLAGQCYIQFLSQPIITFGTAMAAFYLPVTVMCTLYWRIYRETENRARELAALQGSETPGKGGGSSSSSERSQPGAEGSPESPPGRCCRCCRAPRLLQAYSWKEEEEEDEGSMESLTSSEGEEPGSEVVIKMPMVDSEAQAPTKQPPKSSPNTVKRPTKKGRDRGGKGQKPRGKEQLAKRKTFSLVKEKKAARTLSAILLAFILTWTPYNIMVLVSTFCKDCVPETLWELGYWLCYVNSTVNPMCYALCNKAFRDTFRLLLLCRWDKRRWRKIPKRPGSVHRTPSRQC

This assay addresses Muscarinic acetylcholine receptor M1 (Rattus norvegicus) (UniProt P08482). The experiment in a line: potentiation of ACh EC20 at rat M1 – cell-based, selectivity assay for M5 allosteric modulator project, SAR follow-up (AID 2206). The conditions noted are these: CHO-K1 rat M1, Fluo-4 calcium.
What is called EC50 is the concentration at which the effect is half-maximal. In the case of `O=C1C(=O)N(Cc2ccccc2C(F)(F)F)c2ccc(F)cc21`, the concentration for a half-maximal effect (EC50) is 6.21 µM. Next, `COc1ccc(CN2C(=O)C(=O)c3ccccc32)cc1`: “inactive”; `COc1ccc(CN2C(=O)C(=O)c3cccc(Cl)c32)cc1`: 5.38 µM.

As for `O=C1C(=O)N(Cc2ccc(C(F)(F)F)cc2)c2ccc(Cl)cc21`, the EC50 is 5.41 µM. For `O=C1C(=O)N(Cc2ccc(C(F)(F)F)cc2)c2c(F)cccc21`, the concentration for a half-maximal effect (EC50) was 5.18 µM.

On to `Cc1ccccc1CN1C(=O)C(=O)c2cc(OC(F)(F)F)ccc21`, for which the EC50 is > 10 µM (inactive).

With `O=C1C(=O)N(Cc2ccc(C(F)(F)F)cc2)c2ccc(OC(F)(F)F)cc21`, the concentration for a half-maximal effect (EC50) was 7.09 µM.

Take `COc1cccc(CN2C(=O)C(=O)c3c(Cl)ccc(Cl)c32)c1`: the EC50 was > 30 µM (inactive). With `COc1cccc(CN2C(=O)C(=O)c3cc(OC(F)(F)F)ccc32)c1`, the EC50 is > 30 µM (inactive). As for `O=C1C(=O)N(Cc2ccc(OC(F)(F)F)cc2)c2ccc(OC(F)(F)F)cc21`, the EC50 is > 30 µM (inactive). As for `O=C1C(=O)N(Cc2ccc(Br)cc2)c2c(F)cccc21`, the figure is 3.99 µM; as for `O=C1C(=O)N(Cc2ccccc2Cl)c2ccc(OC(F)(F)F)cc21`, > 30 µM (inactive); as for `O=C1C(=O)N(Cc2ccc(Br)cc2F)c2ccc(OC(F)(F)F)cc21`, > 10 µM (inactive).

For `O=C1C(=O)N(Cc2ccccc2C(F)(F)F)c2c(F)cccc21`, the EC50 is > 30 µM (inactive).

Consider `COc1ccc(CN2C(=O)C(=O)c3cc(OC(F)(F)F)ccc32)cc1`, for which the EC50 is > 30 µM (inactive).

The values above are taken from PubChem BioAssay AID2206 (Vanderbilt High Throughput Screening Facility, 2009).
